{"source": "patent US12594278B2", "about": "“Method for treatment of muscular dystrophy” (CHILDREN'S NATIONAL MEDICAL CENTER, priority 2019, dated 2026)", "key": {"[1]": {"system": "cultured adipogenic precursors and WT mouse FAPs", "conditions": "previously shown; cited from earlier work"}, "[2]": {"system": "B6A/J mice", "test": "Repeat notexin-induced TA injury in batimastat-treated B6A/J mice", "type": "in vivo, mouse", "method": "Whether this effect of batimastat to repress FAP adipogenesis can improve muscle histopathology was tested in vivo. 12Mo B6A/J mice were treated for 10 weeks with batimastat (2 mg/kg i.p. 3× weekly). […] To determine if this reduction in adipogenic replacement was due to an effect on just FAP differentiation or also on FAP proliferation, FAP accumulation was quantified by PDGFRα labeling and no effect of batimastat treatment on FAP number was found (FIG. 12). […] Thus, inhibition of adipogenesis by batimastat is not due to reduced FAP numbers or improved myofiber repair. To further confirm the ability of batimastat to prevent dysferlinopathic muscle from injury-triggered FAP adipogenesis, we employed the repeat notexin-induced TA injury approach which induces significant adipogenic replacement of the muscle (FIG. 6D and FIG. 6E). […] Given that FAP numbers are unaffected by batimastat treatment, it was examined whether these batimastat treatment causes cells to adopt a fibrogenic fate by blocking their adipogenic differentiation. However, no change in intra-muscular fibrosis was observed as a result of batimastat treatment in either the gastrocnemius or injured TA (FIG. 12). […]\nMicroscopy and Image Analysis. […] Perilipin-1 quantification was performed by thresholding the image to exclude non-specific staining and then calculating the area of each lipid deposit encircled by perlipin-1 (excluding those in the epi- or perimysium) using MetaMorph software (Molecular Devices). The total area encircled by perilipin-1 was calculated for all lipid deposits across the muscle and expressed relative to the total cross-sectional area. PDGFRα and AnxA2 positive area was calculated using CellSens software (Olympus) by thresholding to remove non-specific staining and calculating the total positive area (again, excluding any epi- or perimysial staining) relative to the entire muscle cross-section. […]"}, "[3]": {"system": "B6A/J mice", "test": "10-week batimastat treatment of 12Mo B6A/J mice, gastrocnemius histopathology", "type": "in vivo, mouse", "method": "Whether this effect of batimastat to repress FAP adipogenesis can improve muscle histopathology was tested in vivo. 12Mo B6A/J mice were treated for 10 weeks with batimastat (2 mg/kg i.p. 3× weekly). […] To determine if this reduction in adipogenic replacement was due to an effect on just FAP differentiation or also on FAP proliferation, FAP accumulation was quantified by PDGFRα labeling and no effect of batimastat treatment on FAP number was found (FIG. 12). […] Thus, inhibition of adipogenesis by batimastat is not due to reduced FAP numbers or improved myofiber repair. To further confirm the ability of batimastat to prevent dysferlinopathic muscle from injury-triggered FAP adipogenesis, we employed the repeat notexin-induced TA injury approach which induces significant adipogenic replacement of the muscle (FIG. 6D and FIG. 6E). […] Given that FAP numbers are unaffected by batimastat treatment, it was examined whether these batimastat treatment causes cells to adopt a fibrogenic fate by blocking their adipogenic differentiation. However, no change in intra-muscular fibrosis was observed as a result of batimastat treatment in either the gastrocnemius or injured TA (FIG. 12). Taken together, the above results both confirm the essential nature of FAP adipogenesis for the adipogenic conversion of dysferlinopathic muscle, and highlight the potential of batimastat to arrest the progressive and even late stage adipogenic replacement of dysferlinopathic muscle.\nImmunohistochemical Analysis of Muscle Sections. Frozen sections 8 μm thick were cut from human biopsies and the midbelly of mouse muscles. Lipid was visualized using an Oil Red O staining kit (American MasterTech, #KTORO) according to manufacturer's instructions. […]\nMicroscopy and Image Analysis. […] Perilipin-1 quantification was performed by thresholding the image to exclude non-specific staining and then calculating the area of each lipid deposit encircled by perlipin-1 (excluding those in the epi- or perimysium) using MetaMorph software (Molecular Devices). The total area encircled by perilipin-1 was calculated for all lipid deposits across the muscle and expressed relative to the total cross-sectional area. PDGFRα and AnxA2 positive area was calculated using CellSens software (Olympus) by thresholding to remove non-specific staining and calculating the total positive area (again, excluding any epi- or perimysial staining) relative to the entire muscle cross-section.\nFor in vivo studies, 12Mo B6A/J mice were treated thrice weekly with batimastat (Sigma-Aldridge, #SML0041), 2 mg/kg i.p. for 10 weeks. At the end of the treatment period, the effect of batimastat on disease pathology was evaluated by quantification of perilipin-1 marked lipid area in the gastrocnemius and compared to untreated controls. […]"}, "[4]": {"conditions": "12Mo B6A/J mice, 2 mg/kg i.p. 3× weekly for 10 weeks"}}}
{"smiles": "CNC(=O)[C@H](Cc1ccccc1)NC(=O)[C@H](CC(C)C)[C@H](CSc1cccs1)C(=O)NO", "note": "[batimastat]", "values": [{"measurement": "adipogenesis of cultured adipogenic precursors and WT mouse FAPs", "setting": "[1]", "result": "restrict adipogenesis"}, {"measurement": "reduction in perilipin-1 positive area in TA following repeat notexin injury", "setting": "[2]; 3 notexin injuries during 10 weeks of batimastat 2 mg/kg i.p. 3× weekly, vs untreated mice", "result": "~40", "unit": "%"}, {"measurement": "intra-muscular fibrosis in injured TA (Masson's trichrome)", "setting": "[2]; 3 repeat notexin injuries, batimastat 2 mg/kg i.p. 3× weekly for 10 weeks", "result": "no change"}, {"measurement": "FAP accumulation caused by repeat notexin injuries (PDGFRα)", "setting": "[2]; TA, batimastat 2 mg/kg i.p. 3× weekly for 10 weeks", "result": "did not reduce"}, {"measurement": "FAP number (PDGFRα labeling) in gastrocnemius", "setting": "[3]; [4]", "result": "no effect"}, {"measurement": "extent of myofiber central nucleation", "setting": "[3]; [4]", "result": "did not decrease"}, {"measurement": "perilipin-1 labeled area in gastrocnemius", "setting": "[3]; 12Mo B6A/J mice, 2 mg/kg i.p. 3× weekly for 10 weeks, vs untreated mice", "result": "significantly reduced"}, {"measurement": "intra-muscular fibrosis in gastrocnemius (Masson's trichrome)", "setting": "[3]; batimastat 2 mg/kg i.p. 3× weekly for 10 weeks", "result": "no change"}]}
